Test results: ChEMBL document CHEMBL3392922, “MMV box screening in the Dd2 P. falciparum strain”

What follows are compounds tested on Plasmodium falciparum (assay: MMV: IC50 determined against P. falciparum Dd2-luc strain using a Malaria Sybr Green I Fluorescence assay. Starting conditions were 1% trophozoite synchronised parasites at 2% haematocrit. Fluorescence detection completed after 48hr incubation at 37 degrees C under 1% O2, 3% CO2 and balance N2.). Details: Dd2, 48 h.
Type: functional, organism-based

Structure (SMILES) | IC50
Cc1cc(C)c2nc(N3CCC(C(=O)NCCCN4CCC(N5CCCCC5)CC4)CC3)sc2c1 | 1280 nM
CCOc1ccc(Nc2c3ccccc3nc3ccccc23)cc1 | 1670 nM
CCN(CC)c1cc(C)c2cc(NC(=O)c3cccc(OC)c3)ccc2n1 | 2770 nM
O=[N+]([O-])c1ccc(C=NNc2nc3ccccc3[nH]2)cc1 | 242 nM
COc1ccc(-c2nonc2NC(=O)c2cccc(Cl)c2)cc1OC | 1330 nM
CC(C)OCc1cc(CN2CCN(c3cccc(Cl)c3)CC2)c(O)c2ncccc12 | 573 nM
CCOC(=O)C1CCN(C(=O)CN2C(=O)c3ccccc3C2c2c[nH]c3ccccc23)CC1 (stereo not drawn) | 512 nM
CC1=C(CC(=O)c2cccc([N+](=O)[O-])c2)C(=O)c2ccccc2C1=O | 129 nM
COc1cc(-c2nc(-c3ccc(Sc4ccccc4)cc3)c(-c3ccccc3)[nH]2)cc(OC)c1O | 734 nM
Cc1cc(N(C)C)nc(Nc2ccc(NC(=O)Nc3ccccc3)cc2)n1 | 973 nM
COc1cc(OC)c(N(C)C(=O)c2cc3c(s2)-c2ccccc2S(=O)(=O)C3)cc1Cl | 298 nM
CCC(c1ccccc1)c1nn2c(-c3cccs3)nnc2s1 (stereo not drawn) | 338 nM
COc1ccc(-c2cc(=O)oc3c4c(ccc23)OCN(Cc2ccc(F)cc2)C4)cc1 | 851 nM
OC(CNC1CCCCC1)Cn1c2ccc(I)cc2c2cc(I)ccc21 (stereo not drawn) | 436 nM
O=C(Nc1ccc(Cl)c(Cl)c1)Nc1ccc(Cl)c(Cl)c1 | 3880 nM
CCOC(=O)c1c(NC(=O)c2ccccc2)sc2c(O)c(CN(CC)CC)ccc12 | 127 nM
CCN1CCCC1CNc1[nH]cnc2c3cc(Cl)ccc3nc1-2 (stereo not drawn) | 1450 nM
Clc1ccc2[nH]c3c(NCCCN4CCOCC4)ncnc3c2c1 | 617 nM
COc1ccccc1C(=O)ON=C(N)Cc1cccc2ccccc12 | 4020 nM
CN(C)CCNc1cc(-c2ccccc2)nc2ccccc12 | 3650 nM
Cc1ccc2nc(C)cc(Nc3cccc(C(F)(F)F)c3)c2c1 | 1390 nM
COc1cccc(NC(=O)[C@H](C(C)C)n2c(=O)[nH]c3ccccc3c2=O)c1 | 158 nM
CCCCc1c(C)nc2c(OC)cccc2c1O | 1410 nM

Structure (SMILES) | IC50
COc1ccc(C(=O)NC(c2ccccc2Cl)c2cc(Cl)c3cccnc3c2O)cc1 (stereo not drawn) | 978 nM
CCn1c(CN2CCN(Cc3ccccc3)CC2)nc2cc(NC(=O)c3cccs3)ccc21 | 468 nM
Cc1cc(NC(=O)C2c3ccccc3C(=O)N(CC(C)C)C2c2cccs2)no1 (stereo not drawn) | 160 nM
CN(C)c1ccc(-c2nc3cc(N)ccc3[nH]2)cc1 | 1240 nM
CC(=O)NCCc1nc2ccccc2n1Cc1ccc(C(C)C)cc1 | 1490 nM
c1ccc(CNc2nc(Nc3ccccc3)nc3ccccc23)cc1 | 897 nM
O=c1nc(C=Cc2ccc(Br)cc2)oc2ccccc12 | 5930 nM
CCOc1ccc(Nc2ccnc3cc(Cl)ccc23)cc1 | 768 nM
COc1cccc(-c2nn(C)c3sc(C(=O)NCCN4CCN(c5ccccc5F)CC4)cc23)c1 | 1910 nM
CCOc1ccc2nc(C)cc(Nc3ccc(Br)cc3)c2c1 | 791 nM
c1ccc(/C2=N/c3ccccc3/N=C(/c3ccccc3)c3ccccc32)cc1 | 638 nM
COc1ccc(CCNC(=O)c2cc(S(=O)(=O)N3CC(C)CC(C)C3)ccc2Sc2ccc(F)cc2)cc1OC (stereo not drawn) | 1330 nM
Nc1ccc(-c2nc3cc(Cc4ccc5[nH]c(-c6ccc(N)cc6)nc5c4)ccc3[nH]2)cc1 | 1820 nM
Cc1ccc(-c2cc3nc4c(c(O)n3n2)CCCC4)cc1 | 1780 nM
CCOc1ccc(C2N(C)c3ccccc3N2C)cc1 | 904 nM
COc1cccc(Nc2nc(NCCO)c3ccccc3n2)c1 | 885 nM
O=C(Nc1cccc(C2=NCCN2)c1)Nc1cccc(C2=NCCN2)c1 [IMIDOCARB] | 332 nM
COc1cc(CNCCc2ccc(Cl)cc2)cc(OC)c1O | 1870 nM
Cc1c(C)n(CC(O)CNC2CCCCC2C)c2ccccc12 (stereo not drawn) | 484 nM
CN(C)c1ccc(C(O)(c2ccc(N(C)C)cc2)c2ccc(N(C)C)cc2)cc1 [METHYLROSANILINE] | 218 nM
COc1ccc(CNC(=O)c2cc3c(=O)n4ccccc4nc3n(CCc3ccccc3)c2=N)cc1 | 1230 nM
CCCCN(CCCC)S(=O)(=O)c1ccc(NC(=O)c2ccco2)cc1 | 1160 nM
CCOc1c(Br)cc(C2C(C(=O)OC)=CN(C)C=C2C(=O)OC)cc1OC | 789 nM

Structure (SMILES) | IC50
CCN1CCN(Cc2ccc(NC(=O)c3cc4ccc5cccnc5c4[nH]3)cc2)CC1 | 665 nM
CCCCCn1c(=N)n(CC(O)COc2cccc(C)c2)c2ccccc21 (stereo not drawn) | 2350 nM
CCOc1ccccc1CN1CCc2nc3cc(C(C)(C)C)nn3c(O)c2C1 | 1220 nM
Cc1cccc(N2C(=O)C3C(C2=O)C2(c4ccccc4)C(=O)C3(c3ccccc3)C(c3ccc4c(c3)OCO4)=C2c2ccc3c(c2)OCO3)c1 (stereo not drawn) | 1700 nM
COc1ccccc1CNC(=O)CCn1c(=O)[nH]c2ccsc2c1=O | 977 nM
CCCCNCC(O)(c1ccc(Cl)cc1)c1ccc(Cl)cc1 | 420 nM
O=C(NCc1ccco1)C1CCN(S(=O)(=O)c2ccc(Cl)cc2)CC1 | 878 nM
O=C(Nc1ccc(N2CCN(Cc3ccccc3)CC2)cc1)c1cccs1 | 742 nM
CN1CCN(c2ccc(Nc3c4ccccc4nc4ccccc34)cc2)CC1 | 1600 nM
COc1ccc(CCN2C(=O)c3[nH]nc(-c4cc(Cl)c(C)cc4O)c3C2c2ccccc2F)cc1 (stereo not drawn) | 3190 nM
O=C(Nc1ccc(N2CCCCC2)c(Cl)c1)c1ccc(Br)o1 | 559 nM
Cn1c(=O)c2cc(C(=O)NCCCN3CCCCCC3)sc2c2ccccc21 | 366 nM
C=CCc1c(C)nc2ccccc2c1O | 1480 nM
CCn1c(SCC(=O)Nc2cc(C(F)(F)F)ccc2Cl)nc2ccccc2c1=O | 903 nM
O=C(NCc1ccco1)C1CCN(S(=O)(=O)c2ccc(Br)cc2)CC1 | 901 nM
CCOc1c(Cl)cc(CNCC(O)c2ccccc2)cc1OC (stereo not drawn) | 1300 nM
COc1ccc(C(=O)C(CCC(CNC(C)(C)C)C(=O)c2ccc(OC)cc2)CNC(C)(C)C)cc1 (stereo not drawn) | 1600 nM
CCOC(=O)c1cnc2ccc(OC)cc2c1Nc1ccc(N2CCN(C)CC2)cc1 | 769 nM
O=C(NC1CCN(Cc2ccccc2)CC1)c1cc2nc(-c3ccc(Cl)s3)cc(C(F)(F)F)n2n1 | 5170 nM
OC(CNC1CCCC1)Cn1c2ccccc2c2ccccc21 (stereo not drawn) | 453 nM
COc1nc(Nc2ccc(C(C)C)cc2)nc(OC)n1 | 365 nM
Cc1ccc(Nc2nc(-c3ccccn3)cs2)cc1 | 479 nM
Cc1cc(NC(=O)c2cccc(C(F)(F)F)c2)n(-c2nc(-c3ccc4c(c3)OCO4)cs2)n1 | 2180 nM

Structure (SMILES) | IC50
CCOc1ccc(/C=C/c2nc(=O)c3ccccc3o2)cc1 | 740 nM
CN(C)CCCNCc1ccc(-c2ccc(F)c(Cl)c2)o1 | 1160 nM
Cc1ccc(C)c(-c2csc(Nc3ccc(C)c(C)c3)n2)c1 | 1050 nM
CCOc1c(Cl)cc(CNC(C)C(O)c2ccccc2)cc1OC (stereo not drawn) | 1360 nM
CCOc1ccc(-c2nonc2NC(=O)c2cccc(C)c2)cc1OCC | 154 nM
Cc1ccc2cc3c(N)c4c(C)ccc(C)c4nc3nc2c1 | 1440 nM
Cc1cc(Nc2cccc(F)c2)nc(NCc2ccccc2)n1 | 544 nM
CCCN(CCC)CC(O)COc1ccccc1C(=O)Nc1ccccc1 (stereo not drawn) | 209 nM
CN(C)c1ccc(N=Cc2ccc(N3CCOCC3)cc2)cc1 | 345 nM
CC(=O)c1ccc(NC(=O)CSc2nc(-c3ccccc3Cl)ns2)cc1 | 1690 nM
CCOc1cccc(C(=O)Nc2ccc(-c3nc4ccccc4[nH]3)cc2)c1 | 1210 nM
O=C(CCc1ccccc1)c1ccccc1OCC(O)CN1CCCCC1 (stereo not drawn) | 1090 nM
O=C(NCCCN1CCC(N2CCCCC2)CC1)C1=Cc2cc(Br)ccc2OC1 | 965 nM
O=C1c2ccccc2C2=Nc3ccccc3SC(c3cccc(F)c3)C12 (stereo not drawn) | 766 nM
OC(CNC1CCCCC1)Cn1c2ccccc2c2ccccc21 (stereo not drawn) | 278 nM
Clc1ccc2c(N3CCCC3)ccnc2c1 | 1290 nM
CC(C)=CCN1CCC(C(=O)Nc2ccc(-c3nc4ccccc4[nH]3)cc2)CC1 | 1240 nM
CCCc1cc(O)c2c3c(c(=O)oc2c1)CN(C)CC3 | 2570 nM
Cc1cccc(Nc2nc(N)c3ccccc3n2)c1 | 3500 nM
Cc1ccc(-c2nc3ccccc3o2)cc1NCc1cc(Cc2ccccc2)ccc1O | 1700 nM
CN(C)c1ccc(N2C(N)=NC(N)=NC2(C)C)cc1 | 158 nM
OCCNc1nc(Nc2ccc(Cl)c(Cl)c2)nc2ccccc12 | 419 nM
Cc1c(C)n(Cc2ccc(F)cc2)c2ccc(C(=O)NCc3ccco3)cc12 | 82.7 nM

Structure (SMILES) | IC50
COc1cc2c3cc1Oc1c(OC)c(OC)cc4c1C(Cc1ccc(O)c(c1)Oc1ccc(cc1)CC3N(C)CC2)N(C)CC4 (stereo not drawn) | 692 nM
CC(C)(C)c1ccc(C(=O)Nc2nc3ccccc3s2)cc1 | 4150 nM
CCC(O)c1ccc(Br)cc1NC(=O)c1cccc(Cl)c1 (stereo not drawn) | 701 nM
Cc1ccc(OCCCCCCNCCO)c(C)c1 | 2480 nM
CCN(CC)S(=O)(=O)c1ccc(-c2csc(Nc3ccc(C)c(C)c3)n2)cc1 | 933 nM
COc1ccc(C(O)(CCC(C)C)C(CN2CCOCC2)c2ccc(Cl)cc2)cc1 (stereo not drawn) | 3550 nM
COc1ccc(CCN2CCC(CN(C)Cc3cnn(-c4ccccc4)c3)CC2)cc1 | 2680 nM
N=c1n(CCN2CCCCC2)c2ccccc2n1CC(O)c1cccc(Br)c1 (stereo not drawn) | 1110 nM
COc1ccc(CNC2CCN(c3ccc(NC(=O)c4cccc(Cl)c4)cc3)CC2)cc1OC | 1190 nM
CC1CN(C(=O)c2sc3ccccc3c2Cl)CC(C)O1 (stereo not drawn) | 104 nM
Oc1c2c(nc3cc(-c4ccccc4)nn13)CCCC2 | 1560 nM
Cc1cc(Nc2ccc(Cl)cc2)n2nc(C(F)(F)F)nc2n1 | 302 nM
O=C(Nc1ccc(CN2CCOCC2)cc1)c1ccc(-c2ccc(Br)cc2)o1 | 958 nM
CCCc1c(C)nc2ccccc2c1O | 637 nM
CCN(CC)CCCNc1nc(-c2ccc(Cl)cc2)nc2ccccc12 | 425 nM
Oc1ccc(Br)cc1CN1CCN(Cc2ccc(Cl)cc2)CC1 | 1520 nM
FC(F)(F)c1cccc(Nc2nc3ccccc3nc2Nc2cccc(C(F)(F)F)c2)c1 | 739 nM
CCOc1cc(Cl)c(C(C)NC(=O)c2ccccc2)cc1OCC (stereo not drawn) | 828 nM
COc1cccc(C2(C)Nc3ccccc3-c3nc4ccccc4n32)c1 (stereo not drawn) | 1410 nM
COc1ccc(Nc2nc(N/N=C/c3ccc(O)cc3)nc(Nc3ccc([N+](=O)[O-])cc3)n2)cc1 | 1530 nM
CNCCCNc1ccnc2cc(Cl)ccc12 | 437 nM
